# In US20260234187A1, “ANTIMICROBIAL PEPTIDES” (MATERIAS S.R.L., priority 2020, published 2026):
# Where no end group is shown, it is not given here.
# What was measured:
# [1] = physchem; format: physicochemical; settings: L or D configuration; ultrapure water, DMSO and DPBS
# Method: The tests were carried out in three of the most common solvents used in biological applications such as: ultrapure water; DPBS (Dulbecco's Phosphate Buffered Saline), i.e., a saline buffer containing potassium chloride (KCl), monobasic potassium phosphate (KH2PO4), sodium chloride (NaCl) and dibasic sodium phosphate (Na2HPO4-7H2O) and finally in an organic solvent such as dimethylsulfoxide (DMSO).
# [2] = kinetics of structural rearrangements by Circular Dichroism, secondary structure by BESTSEL and Dichroweb; format: physicochemical; settings: sodium acetate pH 4
# Method: The structural and conformational characterization of the RiLK1 peptide was assessed by investigating its secondary structure by Circular Dichroism (CD) spectroscopy in the absence and in the presence of Sodium Dodecyl Sulfate (SDS) at a concentration of 3 mM to mimic the condition of the bacterial cell membrane.
# The CD assays were performed with a Jasco J-810 spectropolarimeter equipped with a thermostated cuvette holder. The samples were loaded into a 0.1 cm long quartz cuvette (Hellma Analytics) and the spectrum was analysed in the range from 190 nm to 250 nm at room temperature for each sample.
# The CD spectra were acquired at a scan rate of 20 nm/min, and the recorded results represent an average of 5 scans.
# The mean residue ellipticity ([θ], degrees cm^2 dmol^−1) was calculated using the following equation: […]
# The secondary structure was calculated through the DICHROWEB site (Whitmore L and Wallace B A, 2004, Nucleic Acids Research 32:668-673, Whitmore L and Wallace B A, 2008, Biopolymers 89:392-400, Lobley et al, 2002, Bioinformatics 18:211-212), using three different algorithms (SELCON3, CONTIN-LL and CDSSTR) (Sreerema N and Woody R W, 1993, Analytical Biochemistry 287:252-260) and selecting the SMP180 protein as the comparison data set, which includes a high number of spectra of soluble and membrane proteins (Abdul-Gader A et al, 2011, Bioinformatics 27:1630-1636).
# The secondary structure was also calculated through the BETSEL site (Micsonai A. et al, 2018, Nucleic Acids Res. 46: W315-W322; Micsonai A. et al, 2015, Proc Natl Acad Sci USA; 112: E3095-E3103).
# The kinetics of the structural rearrangements of the RiLK1 peptide were assessed over 24 hours by Circular Dichroism (CD) spectroscopy and fluorescence spectroscopy.
# 0.1 g/L of RiLK1 peptide was dissolved in 10 mM sodium acetate buffer at pH 4, in the absence or presence of 3 mM SDS.
# [3] = system: Aspergillus brasiliensis (ATCC 9341); assay: antifungal activity, plate count, MFC; format: cell-based; settings: A. brasiliensis; 25 μM, 6 h
# Method: The antifungal activity of the RiLK1 peptide was determined against Aspergillus brasiliensis. For this purpose, a stock culture was prepared in which 10^5 CFUs of A. brasiliensis were inoculated in 10 ml of buffered peptone water. A reference strain (ATCC 9341) was used for this fungal species. The culture was incubated for 6 h at 37° C. with the RiLK1 peptide at 25 μM concentrations. At the same time, control samples were incubated without adding the peptide. 100 μl of the samples thus prepared were seeded on DG18 plates (Dichloran 18% Glycerol Agar-ISO 21527-2) and incubated at 25° C. for 7 days. All experimental conditions investigated used the plate count method to estimate the fungicidal activity of the peptide. Specifically, the numbers of colonies grown on agar plates seeded with the fungal suspensions in the absence or presence of the individual peptide dilutions were counted and compared. The standard deviations of the triplicate incubations of each plate were determined using statistical software. The evaluation of the Minimum Fungicidal Concentration (MFC), i.e., the lowest concentration of antifungal agent capable of 99.9% inhibition of fungal growth on plates, was carried out as described in Bílikova et al, (2015, Peptides 68:190-196).
substance,measurement,setting,value
"RLKWVRIWRR-NH2 [RiLK1, RLKWVRIWRR]",maximum concentration completely dissolved,[1],≤ 10 mg/mL
same,Random (Bestsel),[2]; t = 0 w/ 3 mM SDS,41.3%
same,Random (DichroWeb CONTIN-LL),[2]; t = 0 w/ 3 mM SDS,40%
same,α-helix (Bestsel),[2]; t = 0 w/ 3 mM SDS,7.4%
same,α-helix (DichroWeb CONTIN-LL),[2]; t = 0 w/ 3 mM SDS,22%
same,β-sheet (Bestsel),[2]; t = 0 w/ 3 mM SDS,51.4%
same,β-sheet (DichroWeb CONTIN-LL),[2]; t = 0 w/ 3 mM SDS,38%
same,Random (Bestsel),[2]; t = 5 min w/ 3 mM SDS,42.2%
same,Random (DichroWeb CONTIN-LL),[2]; t = 5 min w/ 3 mM SDS,36%
same,α-helix (Bestsel),[2]; t = 5 min w/ 3 mM SDS,4.4%
same,α-helix (DichroWeb CONTIN-LL),[2]; t = 5 min w/ 3 mM SDS,22%
same,β-sheet (Bestsel),[2]; t = 5 min w/ 3 mM SDS,53.4%
same,β-sheet (DichroWeb CONTIN-LL),[2]; t = 5 min w/ 3 mM SDS,42%
same,Random (Bestsel),[2]; t = 30 min w/ 3 mM SDS,40.3%
same,Random (DichroWeb CONTIN-LL),[2]; t = 30 min w/ 3 mM SDS,37%
same,α-helix (Bestsel),[2]; t = 30 min w/ 3 mM SDS,11%
same,α-helix (DichroWeb CONTIN-LL),[2]; t = 30 min w/ 3 mM SDS,25%
same,β-sheet (Bestsel),[2]; t = 30 min w/ 3 mM SDS,48.7%
same,β-sheet (DichroWeb CONTIN-LL),[2]; t = 30 min w/ 3 mM SDS,38%
same,Random (DichroWeb CONTIN-LL),[2]; t = 1 h (60 min) w/ 3 mM SDS,39%
same,α-helix (DichroWeb CONTIN-LL),[2]; t = 1 h (60 min) w/ 3 mM SDS,23%
same,β-sheet (DichroWeb CONTIN-LL),[2]; t = 1 h (60 min) w/ 3 mM SDS,38%
same,Random (Bestsel),[2]; t = 1 h w/ 3 mM SDS,39.1%
same,α-helix (Bestsel),[2]; t = 1 h w/ 3 mM SDS,9.8%
same,β-sheet (Bestsel),[2]; t = 1 h w/ 3 mM SDS,51.1%
same,Random (DichroWeb CONTIN-LL),[2]; t = 5 h (300 min) w/ 3 mM SDS,38%
same,α-helix (DichroWeb CONTIN-LL),[2]; t = 5 h (300 min) w/ 3 mM SDS,19%
same,β-sheet (DichroWeb CONTIN-LL),[2]; t = 5 h (300 min) w/ 3 mM SDS,43%
same,Random (Bestsel),[2]; t = 5 h w/ 3 mM SDS,39.3%
same,α-helix (Bestsel),[2]; t = 5 h w/ 3 mM SDS,6.7%
same,β-sheet (Bestsel),[2]; t = 5 h w/ 3 mM SDS,54%
same,Random (DichroWeb CONTIN-LL),[2]; t = 6 h (360 min) w/ 3 mM SDS,37%
same,α-helix (DichroWeb CONTIN-LL),[2]; t = 6 h (360 min) w/ 3 mM SDS,19%
same,β-sheet (DichroWeb CONTIN-LL),[2]; t = 6 h (360 min) w/ 3 mM SDS,44%
same,Random (Bestsel),[2]; t = 6 h w/ 3 mM SDS,40.1%
same,α-helix (Bestsel),[2]; t = 6 h w/ 3 mM SDS,8%
same,β-sheet (Bestsel),[2]; t = 6 h w/ 3 mM SDS,52%
same,Random (Bestsel),[2]; t = 24 h w/ 3 mM SDS,38%
same,Random (DichroWeb CONTIN-LL),[2]; t = 24 h w/ 3 mM SDS,24%
same,α-helix (Bestsel),[2]; t = 24 h w/ 3 mM SDS,8.4%
same,α-helix (DichroWeb CONTIN-LL),[2]; t = 24 h w/ 3 mM SDS,29%
same,β-sheet (Bestsel),[2]; t = 24 h w/ 3 mM SDS,53.6%
same,β-sheet (DichroWeb CONTIN-LL),[2]; t = 24 h w/ 3 mM SDS,47%
same,Random (Bestsel),[2]; w/o 3 mM SDS,51.5%
same,Random (DichroWeb CONTIN-LL),[2]; w/o 3 mM SDS,61%
same,α-helix (Bestsel),[2]; w/o 3 mM SDS,1.2%
same,α-helix (DichroWeb CONTIN-LL),[2]; w/o 3 mM SDS,4%
same,β-sheet (Bestsel),[2]; w/o 3 mM SDS,47.3%
same,β-sheet (DichroWeb CONTIN-LL),[2]; w/o 3 mM SDS,35%
same,Drop Log CFU/ml,[3],5 Log CFU/ml
same,post-treatment decrease in the fungal load,[3],5 Log
